≈ marks a conversion by molar mass, not a printed value. Where “and” joins values, the source holds several entries; their conditions need not be identical. Identical values can stand only once.
Legend:
Assay in all cases: ≥ marks a high value that may be exact or a test limit, other limits are often not marked, values filed in µg/mL are converted to µM
[1] = test system: Enterobacter cloacae 4172
[2] = test system: Enterococcus faecalis ATCC 29212
Escherichia coli 1057 = test system: Escherichia coli 1057
Escherichia coli 214 = test system: Escherichia coli 214
[3] = test system: Escherichia coli BL21(DE3)
Escherichia coli C600 = test system: Escherichia coli C600
Escherichia coli ML-35p = test system: Escherichia coli ML-35p
[4] = test system: Micrococcus luteus VKM B-1314
[5] = test system: Staphylococcus aureus ATCC 29213
[6] = test system: Escherichia coli K12 MG1655
Escherichia coli UTI89 = test system: Escherichia coli UTI89
[7] = test system: Salmonella enterica subsp. enterica serovar Typhimurium ATCC 14028
[8] = test system: Staphylococcus epidermidis
[9] = test system: Candida albicans NCYC 1467
[10] = test system: Enterococcus faecalis NCTC 12697
[11] = test system: Escherichia coli NCTC 10418
[12] = test system: Klebsiella pneumoniae ATCC 43816
[13] = test system: Pseudomonas aeruginosa ATCC 27853
[14] = test system: Staphylococcus aureus NCTC 10788
[15] = test system: Staphylococcus aureus NCTC 12493
[16] = test system: Escherichia coli ATCC 35218
[17] = test system: Klebsiella oxytoca ATCC 13182
[18] = test system: Klebsiella pneumoniae ATCC 700603
[19] = test system: Klebsiella pneumoniae KpC+001825971
[20] = test system: Serratia marcescens ATCC 13880
[21] = test system: Staphylococcus aureus ATCC 80958
[22] = test system: Candida albicans NCTC 1467
[23] = test system: Staphylococcus aureus ATCC 12493
[24] = test system: Bacillus subtilis VKM B-501
[25] = test system: Staphylococcus aureus 209P
Escherichia coli D31 = test system: Escherichia coli D31
[26] = test system: Pseudomonas aeruginosa ATCC 10145
[27] = test system: Staphylococcus aureus ATCC 27660

With `CC[C@H](C)[C@H](NC(=O)[C@@H]1CCCN1C(=O)CNC(=O)[C@@H](NC(=O)[C@H](Cc1ccccc1)NC(=O)[C@@H]1CCCN1C(=O)CNC(=O)[C@@H](NC(=O)[C@H](CCCCN)NC(=O)[C@H](Cc1cnc[nH]1)NC(=O)[C@H](Cc1c[nH]c2ccccc12)NC(=O)[C@H](CC(C)C)NC(=O)[C@H](CCCN=C(N)N)NC(=O)[C@H](CCCCN)NC(=O)[C@H](CC(C)C)NC(=O)[C@H](CCCCN)NC(=O)[C@H](CCCCN)NC(=O)[C@H](CCCN=C(N)N)NC(=O)[C@H](Cc1ccccc1)NC(=O)[C@H](CCCN=C(N)N)NC(=O)[C@H](CCCCN)NC(=O)[C@H](Cc1ccccc1)NC(=O)[C@H](CCCN=C(N)N)NC(=O)CN)C(C)C)C(C)C)C(=O)N[C@@H](CC(C)C)C(=O)N[C@@H](Cc1cnc[nH]1)C(=O)N[C@@H](Cc1ccc(O)cc1)C(=O)O` [GRFKRFRKKLKRLWHKVGPFVGPILHY] the MIC [1] was 0.125 µM and 0.25 µM, the MIC [2] was 4 µM and 8 µM and the MIC (Escherichia coli 1057) was 0.125 µM (≈ 0.421 µg/mL). The MIC (Escherichia coli 214) was 0.06 µM (≈ 0.202 µg/mL), the MIC [3] was 0.06 µM (≈ 0.202 µg/mL) and the MIC (Escherichia coli C600) was 0.06 µM and 0.125 µM. For the same compound, the MIC (Escherichia coli ML-35p) was 0.06 µM (≈ 0.202 µg/mL), the MIC [4] was 0.25 µM and 0.5 µM and the MIC [5] was 1 µM and 2 µM.
An MIC [6] of 6.25 µM (≈ 11.7 µg/mL), an MIC (Escherichia coli UTI89) of 6.25 µM (≈ 11.7 µg/mL) and an MIC [7] of 25 µM (≈ 46.9 µg/mL) were found for `CC[C@H](C)[C@H](NC(=O)[C@H](CCCCN)NC(=O)[C@H](CCC(N)=O)NC(=O)[C@H](Cc1c[nH]c2ccccc12)NC(=O)[C@@H](NC(=O)[C@H](CCCN=C(N)N)NC(=O)[C@@H](N)CCCCN)[C@@H](C)CC)C(=O)N[C@@H](CCCCN)C(=O)N[C@@H](CC(N)=O)C(=O)N[C@@H](Cc1ccccc1)C(=O)N[C@@H](Cc1ccccc1)C(=O)N[C@@H](CCC(N)=O)C(=O)N[C@@H](CCCCN)C(=O)N[C@@H](CC(C)C)C(=O)O` [KRIWQKIKNFFQKL] in this work. For the same compound, the MIC [8] was 25 µM (≈ 46.9 µg/mL).
An MIC [9] of 16 µM (≈ 32 µg/mL), an MIC [10] of no less than 32 µM and an MIC [11] of no less than 128 µM were found for `CC[C@H](C)[C@H](NC(=O)[C@H](C)NC(=O)[C@H](CCCCN)NC(=O)[C@@H]1CCCN1C(=O)[C@@H](NC(=O)[C@H](CC(C)C)NC(=O)[C@H](CO)NC(=O)[C@H](CC(C)C)NC(=O)[C@@H](N)Cc1ccccc1)[C@@H](C)CC)C(=O)N[C@@H](CO)C(=O)N[C@@H](C)C(=O)N[C@H](C(=O)N[C@@H](CO)C(=O)N[C@@H](C)C(=O)N[C@@H](CC(C)C)C(=O)N[C@@H](C)C(=O)N[C@@H](CC(N)=O)C(=O)N[C@@H](Cc1cnc[nH]1)C(=O)N[C@@H](Cc1ccccc1)C(N)=O)C(C)C` [FLSLIPKAISAVSALANHF] in this work. The MIC [12] was no less than 256 µM, the MIC [13] was greater than 512 µM and the MIC [14] was 8 µM (≈ 16 µg/mL). For the same compound, the MIC [15] was 16 µM (≈ 32 µg/mL).
An MIC [16] of 7.35 µM (≈ 18.4 µg/mL), an MIC [17] of 1.84 µM (≈ 4.6 µg/mL) and an MIC [18] of 3.67 µM (≈ 9.18 µg/mL) were found for `CC(C)C[C@H](NC(=O)[C@H](Cc1ccc(O)cc1)NC(=O)[C@H](C)NC(=O)[C@H](CCCN=C(N)N)NC(=O)[C@H](Cc1ccccc1)NC(=O)[C@H](Cc1ccc(O)cc1)NC(=O)[C@H](CCCCN)NC(=O)[C@@H](NC(=O)[C@H](Cc1c[nH]c2ccccc12)NC(=O)[C@H](CCCN=C(N)N)NC(=O)[C@H](Cc1cnc[nH]1)NC(=O)[C@H](CC(C)C)NC(=O)[C@H](Cc1ccccc1)NC(=O)[C@H](CCCN=C(N)N)NC(=O)[C@@H](NC(=O)[C@H](Cc1ccc(O)cc1)NC(=O)[C@H](CCCCN)NC(=O)[C@@H](N)CCCN=C(N)N)C(C)C)C(C)C)C(=O)O` [RKYVRFLHRWVKYFRAYL] in this work. The MIC [19] was 25.6 µM (≈ 64.1 µg/mL), the MIC [20] was 1.84 µM (≈ 4.6 µg/mL) and the MIC [21] was 7.35 µM (≈ 18.4 µg/mL).
An MIC [22] of no less than 512 µM, an MIC [10] of no less than 512 µM and an MIC [11] of no less than 512 µM were found for `CC[C@H](C)[C@H](NC(=O)CN)C(=O)N[C@@H](CCSC)C(=O)N[C@@H](CC(=O)O)C(=O)N[C@H](C(=O)N[C@H](C(=O)N[C@@H](CCCCN)C(=O)N[C@@H](CC(N)=O)C(=O)N[C@@H](C)C(=O)N[C@@H](C)C(=O)N[C@@H](CCCCN)C(=O)N[C@@H](CC(N)=O)C(=O)N[C@@H](CC(C)C)C(=O)N[C@@H](C)C(=O)NCC(=O)N[C@@H](CCC(N)=O)C(=O)N[C@@H](CC(C)C)C(=O)N[C@@H](CC(C)C)C(=O)N[C@@H](CC(=O)O)C(=O)N[C@@H](CCCCN)C(=O)N[C@@H](CC(C)C)C(=O)N[C@@H](CCCCN)C(=O)N[C@H]1CSSC[C@@H](C(=O)O)NC(=O)[C@H](C)NC(=O)[C@H]([C@@H](C)O)NC(=O)[C@H]([C@@H](C)CC)NC(=O)[C@H](CO)NC1=O)C(C)C)[C@@H](C)O` [GIMDTVKNAAKNLAGQLLDKLKCSITAC] in this work. It also gave an MIC [13] greater than 512 µM, an MIC [23] of no less than 512 µM and an MIC [14] of no less than 512 µM.
An MIC [24] of 0.7 µM (≈ 2.07 µg/mL), an MIC (Escherichia coli C600) of 3 µM (≈ 8.88 µg/mL) and an MIC [25] of 1.5 µM (≈ 4.44 µg/mL) were found for `CC[C@H](C)[C@H](NC(=O)[C@H](C)NC(=O)[C@H](CCCCN)NC(=O)[C@H](CCCN=C(N)N)NC(=O)[C@H](CC(C)C)NC(=O)[C@H](Cc1ccccc1)NC(=O)[C@H](CCCCN)NC(=O)[C@H](CCCCN)NC(=O)[C@@H](NC(=O)[C@H](CC(C)C)NC(=O)[C@H](CCCCN)NC(=O)CNC(=O)[C@H](Cc1ccccc1)NC(=O)[C@H](CC(C)C)NC(=O)CN)[C@@H](C)CC)C(=O)N[C@@H](CO)C(=O)N[C@@H](Cc1ccc(O)cc1)C(=O)N[C@@H](C)C(=O)N[C@H](C(=O)N[C@@H](CCCCN)C(=O)N[C@@H](CCCCN)C(=O)N[C@@H](C)C(=O)N[C@@H](CCCN=C(N)N)C(=O)NCC(=O)N[C@@H](CCCCN)C(=O)N[C@@H](Cc1cnc[nH]1)C(=O)O)C(C)C` [GLFGKLIKKFLRKAISYAVKKARGKH] in this work.
An MIC (Escherichia coli D31) of 15 µM (≈ 33.2 µg/mL), an MIC [18] greater than 15 µM and an MIC [26] of 15 µM (≈ 33.2 µg/mL) were found for `CC(C)C[C@H](NC(=O)[C@H](CCCCN)NC(=O)[C@H](CCCCN)NC(=O)[C@H](C)NC(=O)[C@H](CCCCN)NC(=O)[C@H](CCCCN)NC(=O)[C@H](C)NC(=O)CNC(=O)[C@H](CCCCN)NC(=O)[C@H](C)NC(=O)[C@H](Cc1c[nH]c2ccccc12)NC(=O)[C@H](C)NC(=O)[C@H](CCCCN)NC(=O)[C@H](C)NC(=O)[C@H](C)NC(=O)[C@H](CCCCN)NC(=O)[C@@H](N)CCCCN)C(=O)N[C@@H](C)C(=O)N[C@@H](CCCCN)C(=O)NCC(=O)N[C@@H](C)C(=O)NCC(=O)O` [KKAAKAWAKGAKKAKKLAKGAG] in this work. It also gave an MIC [27] of 15 µM (≈ 33.2 µg/mL).

Reference: DBAASP
